# Reference: patent US20230183237A1, “COMPETITIVE AND NONCOMPETITIVE INHIBITORS OF THE MUSCARINIC ACETYLCHOLINE RECEPTOR M5” (Vanderbilt University, priority 2020, published 2023)
# Like-named read-outs stand apart in the source and are kept apart here.
# Target: T1, hM5 (Homo sapiens, UniProt P08912)
# T1 construct: expressed in transfected cells
# T1 sequence (P08912 1-532): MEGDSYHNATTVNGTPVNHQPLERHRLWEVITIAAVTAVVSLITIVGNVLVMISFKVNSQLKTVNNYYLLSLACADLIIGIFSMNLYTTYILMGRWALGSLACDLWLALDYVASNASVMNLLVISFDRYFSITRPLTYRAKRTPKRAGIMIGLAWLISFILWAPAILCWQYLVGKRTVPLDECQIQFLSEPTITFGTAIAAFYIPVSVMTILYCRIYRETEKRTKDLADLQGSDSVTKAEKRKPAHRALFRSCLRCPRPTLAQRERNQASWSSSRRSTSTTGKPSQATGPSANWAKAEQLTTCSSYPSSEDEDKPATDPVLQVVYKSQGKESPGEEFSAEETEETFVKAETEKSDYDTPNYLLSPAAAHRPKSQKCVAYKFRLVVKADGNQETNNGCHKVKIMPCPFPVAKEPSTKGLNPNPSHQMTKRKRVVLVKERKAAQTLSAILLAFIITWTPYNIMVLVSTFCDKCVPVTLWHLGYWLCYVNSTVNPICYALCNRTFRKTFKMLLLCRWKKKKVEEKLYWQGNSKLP
# Assay: Calcium mobilization concentration-response (IC50 vs EC80 acetylcholine), CHO hM5
# Assay type: cell-based
# Conditions: CELL LINE hM5, read-out: IC50
# Procedure: Initial, single point (10 μM) compound characterization was performed in stable Chinese Hamster Ovary (CHO) cell lines constitutively expressing human M5 receptors. These were plated at 15,000 cells per 20 μL per well in Greiner 384-well black-walled, TC-treated, clear-bottomed plates (Fisher) in Ham's F12 medium supplemented with 10% FBS and 20 mM HEPES. Cells were incubated overnight at 37° C. under 5% CO2. The following day, medium was exchanged with assay buffer (Hank's Balanced Salt Solution supplemented with 20 mM HEPES and 2.5 mM Probenecid, pH 7.4) leaving 20 μL of assay buffer in each well. […] The cells were then incubated 50 minutes at 37° C. under 5% CO2. The assay buffer plus dye was then exchanged with fresh assay buffer leaving a volume of 20 μL in each well. Test compounds were diluted into assay buffer to a 2X (20 μM) concentration in 0.2% dimethylsulfoxide (DMSO) in columns 3-22 with matching DMSO concentration in columns 1, 2, 23, and […]; compounds were added to the assay for a final concentration of 10 μM and a final DMSO concentration of 0.1%.
# Either an FDSS (Hamamatsu) or Panoptic (WaveFront Biosciences) kinetic imaging plate reader was used for assay execution and measurement of calcium flux. After establishing baseline fluorescence, test compounds (20 μL) were added to the cells using the reader's integrated pipettor and allowed to equilibrate for 140 seconds before addition of the […] concentration of acetylcholine (10 μL) along with vehicle in selected DMSO-only wells in the outer two columns . […] The raw fluorescence data from each well was normalized to the corresponding initial fluorescence reading (static ratio). The maximum fluorescence value following each addition was determined and the minimum value within that same timeframe was subtracted for each well then normalized to the average of the ECffiax maximum-minimum response, providing a % AChmax value for each addition for each well. The single point values represent mean values determined within the ECsu addition timeframe obtained from at least three independent determinations performed in triplicate or greater (error bars represent +/−SEM) unless otherwise specified.
# CHO cells stably expressing hM1, hM2/Gqi5, hM3, hM4/Gqi5, hM5, rM1/Gqi5, rM3, rM4/Gqi5, or rM5 were plated in the manner described above. […] FDSS protocols were carried out as described above; the static ratio was calculated and the minimum response subtracted from the maximum response within the timeframe of each addition. This max-min response was then normalized to the maximum acetylcholine response. Calculation of IC50 was performed using the percent maximum acetylcholine response for the EC80 addition through the Vortex and Studies modules of the Dotmatics data management software. Results are stored in the Dotrnatics database and an audit trail of any changes to their analysis is generated. Data shown represent mean values obtained from at least three independent determinations performed in triplicate or greater (error bars represent±SEM) unless otherwise specified.
# [1] = calcium mobilization, EC80 acetylcholine addition
Structure (SMILES),IC50 (vs EC80 acetylcholine),IC50 [1]
"[2H]c1nc2cc(Cl)c(C3=CCN(S(=O)(=O)c4cnc(C)s4)CC3)cn2n1 [Compound 611, 5-((4-(7-chloro-[1,2,4]triazolo[1,5-a]pyridin-6-yl-2-d)-3,6-dihydropyridin-1(2H)-yl)sulfonyl)-2-methylthiazole]",0.097 µM,–
"Cc1ncc(S(=O)(=O)N2CCC(c3nn4ncnc4cc3C)CC2)s1 [Compound 214, 2-methyl-5-((4-(7-methyl-[1,2,4]triazolo[1,5-b]pyridazin-6-yl)piperidin-1-yl)sulfonyl)thiazole]",–,> 10 µM
"O=S(=O)(c1cnn2c1CCC2)N1CCC(F)(c2cn3ncnc3cc2F)CC1 [Compound 505, 6-(1-((5,6-dihydro-4H-pyrrolo[1,2-b]pyrazol-3-yl)sulfonyl)-4-fluoropiperidin-4-yl)-7-fluoro-[1,2,4]triazolo[1,5-a]pyridine]",1.31 µM,–
"Cc1ncc(S(=O)(=O)N2CCC(c3ccc4ncnn4c3)CC2)s1 [Compound 480, 5-((4-([1,2,4]triazolo[1,5-a]pyridin-6-yl)piperidin-1-yl)sulfonyl)-2-methylthiazole]",> 10 µM,–
"Cc1cc2ncnn2cc1C1(O)CCN(S(=O)(=O)c2cnc(C)n2C)CC1 [Compound 309, 1-((1,2-dimethyl-1H-imidazol-5-yl)sulfonyl)-4-(7-methyl-[1,2,4]triazolo[1,5-a]pyridin-6-yl)piperidin-4-ol]",–,> 10 µM
"Cc1cc2nccn2nc1C1CCN(S(=O)(=O)c2ccc(Cl)s2)CC1 [Compound 37, 6-(1-((5-chlorothiophen-2-yl)sulfonyl)piperidin-4-yl)-7-methylimidazo[1,2-b]pyridazine]",–,> 10 µM
"Cc1cc2ncccc2cc1C1CCN(S(=O)(=O)c2cnn3c2OCCC3)CC1 [Compound 446, 3-((4-(7-methylquinolin-6-yl)piperidin-1-yl)sulfonyl)-6,7-dihydro-5H-pyrazolo[5,1-b][1,3]oxazine]",0.028 µM,–
"Cc1cc(S(=O)(=O)N2CCC(F)(c3cn4ncnc4cc3C)CC2)sn1 [Compound 561, 5-((4-fluoro-4-(7-methyl-[1,2,4]triazolo[1,5-a]pyridin-6-yl)piperidin-1-yl)sulfonyl)-3-methylisothiazole]",0.181 µM,–
"Cc1ncc(S(=O)(=O)N2CCC(c3cnc(N(C)C)cc3C)CC2)s1 [Compound 552, N.N,4-trimethyl-5-(1-((2-methylthiazol-5-yl)sulfonyl)piperidin-4-yl)pyridin-2-amine]",0.094 µM,–
"Cn1cnc2cc(C3CCN(S(=O)(=O)c4ccc5c(c4)CCO5)CC3)ccc21 [Compound 7, 5-(1-((2,3-dihydrobenzofuran-5-yl)sulfonyl)piperidin-4-yl)-1-methyl-1H-benzo[d]imidazole]",–,> 10 µM
"O=S(=O)(c1cnc2n1CCC2)N1CC=C(c2cn3ncnc3cc2Cl)CC1 [Compound 207, 7-chloro-6-(1-((6,7-dihydro-5H-pyrrolo[1,2-a]imidazol-3-yl)sulfonyl)-1,2,3,6-tetrahydropyridin-4-yl)-[1,2,4]triazolo[1,5-a]pyridine]",–,1.6 µM
"Cc1ncc(S(=O)(=O)N2CCC(c3ccncc3C)CC2)s1 [Compound 430, 2-methyl-5-((4-(3-methylpyridin-4-yl)piperidin-1-yl)sulfonyl)thiazole]",> 10 µM,–
"O=S(=O)(c1ccc2c(c1)CCO2)N1CCC(c2nc3ccccc3[nH]2)CC1 [Compound 3, 2-(1-((2,3-dihydrobenzofuran-5-yl)sulfonyl)piperidin-4-yl)-1H-benzo[d]imidazole]",–,> 10 µM
"Cn1ncc(S(=O)(=O)N2CCC(F)(c3cn4ncnc4cc3F)CC2)c1Cl [Compound 502, 6-(1-((5-chloro-1-methyl-1H-pyrazol-4-yl)sulfonyl)-4-fluoropiperidin-4-yl)-7-fluoro-[1,2,4]triazolo[1,5-a]pyridine]",1.63 µM,–

# Other lines, results leading:
IC50 (vs EC80 acetylcholine),IC50 [1],Structure (SMILES)
0.027 µM,–,"COc1c(S(=O)(=O)N2CCC(c3cn4ncnc4cc3Cl)CC2)c(I)nn1C (single isomer, unassigned) [Compound 625, 7-Chloro-6-(1-((3-iodo-5-methoxy-1-methyl-1H-pyrazol-4-yl)sulfonyl)piperidin4-yl)-[1,2,4]triazolo[1,5-a]pyridine]"
–,> 10 µM,"Cc1c(S(=O)(=O)N2CCC(c3cn4ncnc4cc3-c3ccn(C)n3)CC2)cnn1C [Compound 332, 6-(1-((1,5-dimethyl-1H-pyrazol-4-yl)sulfonyl)piperidin-4-yl)-7-(1-methyl-1H-pyrazol-3-yl)-[1,2,4]triazolo[1,5-a]pyridine]"
> 10 µM,–,"Cc1c(S(=O)(=O)N2CCC(c3cn4ncnc4cc3C(=O)O)CC2)cnn1C [Compound 479, 6-(1-((1,5-dimethyl-1H-pyrazol-4-yl)sulfonyl)piperidin-4-yl)-[1,2,4]triazolo[1,5-a]pyridine-7-carboxylic acid]"
0.036 µM,–,"Cc1cc2ncnn2cc1C1(F)CCN(S(=O)(=O)c2cnn(C)c2Cl)CC1 [Compound 419, 6-(1-((5-chloro-1-methyl-1H-pyrazol-4-yl)sulfonyl)-4-fluoropiperidin-4-yl)-7-methyl-[1,2,4]triazolo[1,5-a]pyridine]"
0.077 µM,–,"CCc1cc2ncnn2cc1C1CCN(S(=O)(=O)c2cnn(C)c2OC)CC1 [Compound 584, 7-ethyl-6-(1-((5-methoxy-1-methyl-1H-pyrazol-4-yl)sulfonyl)piperidin-4-yl)-[1,2,4]triazolo[1,5-a]pyridine]"
–,0.061 µM,"Cc1nn(C)c(Cl)c1S(=O)(=O)N1CCC(c2cn3ncnc3cc2C(F)(F)F)CC1 [Compound 275, 6-(1-((5-chloro-1,3-dimethyl-1H-pyrazol-4-yl)sulfonyl)piperidin-4-yl)-7-(trifluoromethyl)-[1,2,4]triazolo[1,5-a]pyridine]"
> 10 µM,–,"[2H]C([2H])([2H])OCc1c(S(=O)(=O)N2CCC(c3cn4ncnc4cc3F)CC2)cnn1C [Compound 441, 7-fluoro-6-(1-((5-((methoxy-d3)methyl)-1-methyl-1H-pyrazol-4-yl)sulfonyl)piperidin-4-yl)-[1,2,4]triazolo[1,5-a]pyridine]"
0.318 µM,–,"Cc1ncc(S(=O)(=O)N2CCC(c3cn4ncnc4c(F)c3C)CC2)o1 [Compound 486, 5-((4-(8-fluoro-7-methyl-[1,2,4]triazolo[1,5-a]pyridin-6-yl)piperidin-1-yl)sulfonyl)-2-methyloxazole]"
0.008 µM,–,"Cc1cc2ncnn2cc1C1CCN(S(=O)(=O)c2cnn(C)c2Br)CC1 [Compound 522, 6-(1-((5-Bromo-1-methyl-1H-pyrazol-4-yl)sulfonyl)piperidin-4-yl)-7-methyl-[1,2,4]triazolo[1,5-a]pyridine]"
–,0.117 µM,"Cc1cc2ncnn2cc1C1CCN(S(=O)(=O)c2cccc3c2OCCO3)CC1 [Compound 152, 6-(1-((2,3-dihydrobenzo[b]dioxin-5-yl)sulfonyl)piperidin-4-yl)-7-methyl-[1,2,4]triazolo[1,5-a]pyridine]"
–,0.054 µM,"CCc1cc2ncnn2cc1C1CCN(S(=O)(=O)c2cnn3c2CCCC3)CC1 [Compound 302, 7-ethyl-6-(1-((4,5,6,7-tetrahydropyrazolo[1,5-a]pyridin-3-yl)sulfonyl)piperidin-4-yl)-[1,2,4]triazolo[1,5-a]pyridine]"
0.06 µM,–,"O=S(=O)(c1cnn2ccccc12)N1CCC(c2cn3ncnc3cc2C(F)F)CC1 [Compound 510, 7-(difluoromethyl)-6-(1-(pyrazolo[1,5-a]pyridin-3-ylsulfonyl)piperidin-4-yl)-[1,2,4]triazolo[1,5-a]pyridine]"
–,0.325 µM,"Cc1cc2ncnn2cc1C1CCN(S(=O)(=O)c2c3ccccc3nn2C)CC1 [Compound 150, 7-methyl-6-(1-((2-methyl-2H-indazol-3-yl)sulfonyl)piperidin-4-yl)-[1,2,4]triazolo[1,5-a]pyridine]"
